In series [1] the target is T1, α4β1 integrin (Jurkat T-cell adhesion to IL-1 stimulated endothelial cell monolayers) (Homo sapiens, UniProt P05556+P13612).
T1 construct: a T-cell line, Jurkat, known to express the α4β1 integrin; host or cells: Jurkat T-cell line
Kind of series: Jurkat-Endothelial Cell Adhesion Assay (Jurkat EC). The series is classed as cell-based. The note with it: Jurkat cells on IL-1 stimulated HUVEC monolayers. An outline of the steps: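 BCECF-loaded Jurkat cells (5×10^5) mixed with compound (generally 100, 20, 5 and 1.25 μM) and added to HUVEC monolayers prestimulated 4 hr with 0.1 ng/ml IL-1, in DMEM-HSA. After 5 min on ice and 20 min at 37° C, washed; fluorescence gives % adhesion relative to no-compound control set at 100%.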

Series [2] concerns the target T2, α4β1 integrin (Jurkat cell adhesion to immobilized CS-1 derived peptide CLHPGEILDVPST) (Homo sapiens, UniProt P05556+P13612).
T2 construct: 100 μl of Jurkat cells (2.5×10^6 cells/ml) in DMEM plus BSA; endogenous in cells; host or cells: Jurkat T-cell line
Briefly: Jurkat-CS-1 Assay. The settings on record: Jurkat cells on CS-1 peptide coated plates. It counts as cell-based. Summed up: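 CS-1 peptide was SPDP-crosslinked onto HSA-coated plates and blocked with BSA. Jurkat cells (2.5×10^6 cells/ml) in DMEM/BSA were mixed with compound, generally at 100, 20, 5 and 1.25 μM, and allowed to adhere for 1 hr at 37° C. Bound cells were fixed, stained with toluidine blue and quantified by OD590.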

Series [3] deals with VLA-4 integrin-dependent eosinophil infiltration. Briefly: Dextran pleurisy model (dextran-induced pleural leukocyte infiltration). It counts as in vivo, C57BL/6 mice. The settings on record: Mus musculus, 4 h post-induction; for change in vivo at 50 mg/kg: 50 mg/kg × 2 iv (0h,+1h relative to dextran); for change in vivo at 25 mg/kg: 25 mg/kg × 2 iv (0h,+1h relative to dextran). The protocol: C57BL/6 mice (Jackson, Bar Harbor, Me.;), 6-8 weeks old, weighing 20-25 g were used throughout. All mice were acclimated for at least 7-14 days after arrival and maintained under controlled temperature (20-22° C.) and a 12 hr daily light cycle (6.00 A.M.-6.00 P.M.). Mice were housed in laminar flow racks and checked biweekly for viral infections (mouse hepatitis virus, minute virus of mice, rodent orphan parvovirus, Sendai) with kits obtained from Oreganon Teknika (Durham, N.C.) using established enzyme-linked immunoabsorbent assays. Mice testing positive for any of the above were omitted from the study. All mice were fed standard laboratory chow (Upjohn Lab Rodent Irradiated Mouse Chow, #5011-3, PMI Feeds, St. Louis, Mo.) and acidified drinking water (pH 5.0) ad libitum.
Intrapleural injections were made using a 27 G needle cut to 3-4 mm and blunted by filing. Injections were made by inserting the needle between the mid-intercostal ribs on the right side of the thoracic cavity.
Dextran (MW 5-40×10^6, St Louis, Mo.) was injected as a 10% solution in saline in a volume of 100 μl/mouse. Care was taken to avoid bleeding at the site of injection at which the intercostal muscles were cut to facilitate smooth insertion of the needle.
Pleural leukocytes were collected as follows: 4 h post-induction, pleural inflammatory exudate was removed by washing with 2×1.0 ml Ca^++/Mg^++ free HBSS (Gibco, Grand Island, N.Y.) containing 45 mg EDTA/100 ml HBSS, 4° C. Total leukocyte counts were made by hemocytometer following erythrocyte lysis in 2% acetic acid in PBS buffer; exudate leukocyte pellets were resuspended in serum for cytospin preparations and stained (Diff Quik, Baxter Healthcare, McGraw Park, Ill.) for differential leukocyte counts (neutrophils, eosinophils, and mononuclear leukocytes).
The pleural cavities of mice receiving either no intrapleural injection, or saline were washed and the cells counted in the same way to estimate baseline or saline-induced pleural leukocyte counts respectively.
All drugs were dissolved in PBS and the pH adjusted to 7.5 with NaOH. Each drug was administered intravenously through the retroorbital sinus at hourly intervals (0-3 h) starting from time “0” as indicated.
The following camphoric acid analogues were tested for their inhibitory effects on dextran-induced leukocyte infiltration: Examples 4, 12, 54, 63, 166, 93, 180, 181, 183, 184, 217, Camphoric acid or PBS (saline) was administered iv. as a control. Inhibition of eosinophil infiltration, which was suppressed by anti-alpha-4 Mab (PS/2, 50%), was used as a readout of VLA-4 antagonist activity of the camphoric acids tested. Data for neutrophils are also reported.

The test system of series [4] is contact hypersensitivity response. The note with it: in vivo; cited from earlier work.
The mark [5] stands for this setting: Eosinophil, read-out: %Δ Pleural Leukocytes, Eos.
[6] abbreviates: Neutrophil, read-out: %Δ Pleural Leukocytes, Neutro.

The values below come from patent publication US6482849B1, “Inhibitors of α4β1 mediated cell adhesion” (Tanabe Seiyaku Co., Ltd., priority 1997, dated 2002).

Like-named read-outs stand apart in the source and are kept apart here.

T1 sequence (P13612 34-1032): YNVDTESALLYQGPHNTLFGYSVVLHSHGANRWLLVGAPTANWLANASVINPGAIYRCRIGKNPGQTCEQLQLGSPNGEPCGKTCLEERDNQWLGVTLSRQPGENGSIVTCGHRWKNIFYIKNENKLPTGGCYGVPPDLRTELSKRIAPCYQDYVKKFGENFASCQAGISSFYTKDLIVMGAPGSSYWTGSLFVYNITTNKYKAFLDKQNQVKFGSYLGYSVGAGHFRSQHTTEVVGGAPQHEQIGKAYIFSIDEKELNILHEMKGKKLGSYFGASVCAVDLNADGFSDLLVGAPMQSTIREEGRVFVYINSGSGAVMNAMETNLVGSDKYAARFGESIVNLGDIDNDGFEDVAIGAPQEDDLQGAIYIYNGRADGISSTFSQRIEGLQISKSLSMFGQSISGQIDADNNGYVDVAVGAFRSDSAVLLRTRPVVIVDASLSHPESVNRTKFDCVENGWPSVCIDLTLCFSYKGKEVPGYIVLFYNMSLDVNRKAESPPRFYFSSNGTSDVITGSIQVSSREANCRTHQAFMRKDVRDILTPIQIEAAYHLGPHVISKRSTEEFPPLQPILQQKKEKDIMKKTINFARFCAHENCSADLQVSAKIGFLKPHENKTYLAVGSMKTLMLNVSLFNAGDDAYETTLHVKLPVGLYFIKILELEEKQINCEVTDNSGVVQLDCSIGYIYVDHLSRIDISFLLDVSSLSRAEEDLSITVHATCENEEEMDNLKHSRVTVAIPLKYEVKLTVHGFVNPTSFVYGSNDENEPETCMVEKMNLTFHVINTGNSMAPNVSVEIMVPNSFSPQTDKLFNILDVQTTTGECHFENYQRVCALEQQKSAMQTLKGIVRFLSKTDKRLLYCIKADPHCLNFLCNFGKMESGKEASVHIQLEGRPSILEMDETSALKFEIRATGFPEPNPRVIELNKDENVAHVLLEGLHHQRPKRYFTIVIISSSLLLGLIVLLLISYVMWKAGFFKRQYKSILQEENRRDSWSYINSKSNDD
T1 sequence (P05556 21-798): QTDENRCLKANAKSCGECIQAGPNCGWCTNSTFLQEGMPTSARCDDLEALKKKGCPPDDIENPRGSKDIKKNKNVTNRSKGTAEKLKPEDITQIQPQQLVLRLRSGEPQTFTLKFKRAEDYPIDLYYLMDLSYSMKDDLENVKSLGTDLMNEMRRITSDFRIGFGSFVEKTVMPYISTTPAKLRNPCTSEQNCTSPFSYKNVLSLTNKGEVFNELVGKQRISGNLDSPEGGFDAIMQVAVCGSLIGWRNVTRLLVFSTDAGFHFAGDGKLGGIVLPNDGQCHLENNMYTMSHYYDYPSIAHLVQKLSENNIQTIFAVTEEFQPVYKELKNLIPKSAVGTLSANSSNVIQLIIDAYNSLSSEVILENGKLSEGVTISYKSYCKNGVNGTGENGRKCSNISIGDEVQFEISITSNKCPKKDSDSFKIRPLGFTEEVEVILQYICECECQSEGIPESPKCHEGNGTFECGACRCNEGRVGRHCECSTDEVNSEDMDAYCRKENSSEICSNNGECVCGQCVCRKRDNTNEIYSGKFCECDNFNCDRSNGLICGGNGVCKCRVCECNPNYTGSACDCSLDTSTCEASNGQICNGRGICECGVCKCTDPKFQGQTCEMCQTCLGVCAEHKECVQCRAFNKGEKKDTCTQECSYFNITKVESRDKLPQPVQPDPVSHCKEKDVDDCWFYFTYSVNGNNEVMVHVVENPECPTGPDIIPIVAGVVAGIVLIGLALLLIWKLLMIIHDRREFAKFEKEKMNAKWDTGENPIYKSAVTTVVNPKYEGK
T2 sequence (P13612 34-1032): as the sequence (P13612 34-1032) above
T2 sequence (P05556 21-798): as the sequence (P05556 21-798) above

Usually IC50 stands for the midpoint of a concentration-inhibition curve. Lower therefore signals greater potency in that assay. Usually melting point stands for the temperature, or range, at which the solid turns liquid. As for `CC1(C)[C@@H](C(=O)N[C@@H](Cc2ccc(NC(=O)c3c(Cl)cccc3Cl)cc2)C(=O)O)CC[C@@]1(C)C(N)=O` [Example 166], the melting point was 196 to 198 °C. In series [1], the IC50 is not above 800 nM. The molecule further gave a half-maximal inhibitory concentration (IC50) in series [2] not above 80 nM. Also, the change in vivo at 50 mg/kg in series [3] (setting [5]) was -50 to -10%. In series [3] (setting [6]), the change in vivo at 50 mg/kg was -10 to 0%.
Take `CC1(C)[C@@H](C(=O)N[C@@H](Cc2ccc(NC(=O)c3c(Cl)cccc3Cl)cc2)C(=O)O)CC[C@@]1(C)C(=O)NCC(N)=O` [Example 180, (1S-cis)-N-[[3-[[(2-Amino-2-oxoethyl)amino]-carbonyl]-2,2,3-trimethylcyclopentyl]carbonyl]-4-[(2,6-dichlorobenzoyl)amino]-L-phenylalanine]: the melting point fell in the range of 203 to 205 °C. Further, in series [1], the IC50 was not above 800 nM. In addition, the IC50 in series [2] was not above 80 nM. In series [3] (setting [5]), the change in vivo at 25 mg/kg is -50 to -10% and the change in vivo at 50 mg/kg was -50 to -10%. For the same molecule, in series [3] (setting [6]), the change in vivo at 25 mg/kg was -50 to -10% and the change in vivo at 50 mg/kg is -50 to -10%.
In the case of EILDV, in series [4], the Contact hypersensitivity response result is given as “blocked”.
